These are literature values, as cited in patent US9827281B2, “Medication dispensing system” (priority 2015, dated 2017).

Series [1] relates to nontumorigenic mammary cells.
Series [2] deals with estrogen receptor-positive and estrogen receptor-negative breast cancer cell lines. The settings on record: inducing apoptosis in a concentration-dependent manner.
Series [3] has as its target T1, androgen receptor in the prostate gland (Homo sapiens, UniProt P10275).
T1 construct: host or cells: prostate gland
T1 sequence (P10275 1-920): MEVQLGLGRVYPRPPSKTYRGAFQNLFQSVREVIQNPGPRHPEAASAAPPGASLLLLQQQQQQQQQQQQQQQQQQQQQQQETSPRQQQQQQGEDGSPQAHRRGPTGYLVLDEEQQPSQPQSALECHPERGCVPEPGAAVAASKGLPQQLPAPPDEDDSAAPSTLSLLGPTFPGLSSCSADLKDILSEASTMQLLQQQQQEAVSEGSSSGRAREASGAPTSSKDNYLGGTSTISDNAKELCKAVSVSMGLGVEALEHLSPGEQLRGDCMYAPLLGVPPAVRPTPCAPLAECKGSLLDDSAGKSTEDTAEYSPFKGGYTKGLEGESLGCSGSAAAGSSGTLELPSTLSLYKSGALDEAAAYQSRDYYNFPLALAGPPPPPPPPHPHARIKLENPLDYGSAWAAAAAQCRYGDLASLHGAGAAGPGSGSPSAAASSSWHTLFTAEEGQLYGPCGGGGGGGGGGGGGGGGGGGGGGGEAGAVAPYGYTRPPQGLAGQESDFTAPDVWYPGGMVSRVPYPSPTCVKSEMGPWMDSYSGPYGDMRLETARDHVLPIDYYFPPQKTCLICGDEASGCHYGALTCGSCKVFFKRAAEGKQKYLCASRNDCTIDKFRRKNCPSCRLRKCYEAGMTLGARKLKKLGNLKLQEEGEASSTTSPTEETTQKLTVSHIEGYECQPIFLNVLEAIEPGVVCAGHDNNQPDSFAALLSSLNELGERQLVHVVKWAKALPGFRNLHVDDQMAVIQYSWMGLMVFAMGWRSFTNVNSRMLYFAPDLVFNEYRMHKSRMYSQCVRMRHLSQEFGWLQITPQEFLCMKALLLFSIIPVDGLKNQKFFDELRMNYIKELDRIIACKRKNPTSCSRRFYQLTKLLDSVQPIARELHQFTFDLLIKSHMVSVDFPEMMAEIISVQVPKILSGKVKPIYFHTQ

Another series addresses CB1 receptor (Homo sapiens, UniProt P21554).
Test in series [4]: not given
This is another data set of the same source.

CB1 receptor, sequence (P21554 whole entry): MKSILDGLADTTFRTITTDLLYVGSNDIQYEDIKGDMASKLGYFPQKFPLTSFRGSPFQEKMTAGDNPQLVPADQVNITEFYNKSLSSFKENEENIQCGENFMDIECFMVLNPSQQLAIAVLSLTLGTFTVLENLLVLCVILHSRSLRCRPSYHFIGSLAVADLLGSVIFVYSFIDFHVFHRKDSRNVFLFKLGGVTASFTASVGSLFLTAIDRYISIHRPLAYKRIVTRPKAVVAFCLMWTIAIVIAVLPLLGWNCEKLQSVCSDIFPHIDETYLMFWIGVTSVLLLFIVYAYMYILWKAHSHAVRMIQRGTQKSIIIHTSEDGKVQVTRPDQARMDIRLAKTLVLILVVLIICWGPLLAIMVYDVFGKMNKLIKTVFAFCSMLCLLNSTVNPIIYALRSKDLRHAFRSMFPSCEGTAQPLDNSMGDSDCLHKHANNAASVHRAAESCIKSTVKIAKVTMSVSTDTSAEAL

Turning to `C=C(C)[C@@H]1CCC(C)=C[C@H]1c1c(O)cc(CCCCC)cc1O` [CBD, Cannabidiol], the “effect on nontumorigenic mammary cells” value in series [1] is “little effect”. Besides, the “survival of breast cancer cell lines” value in series [2] was “inhibited the survival”. In addition, the “affinity to cannabinoid receptors” value with cannabinoid receptors is given as “low affinity”.
As to `CCCCCc1cc(O)c2c(c1)OC(C)(C)[C@@H]1CCC(C)=C[C@@H]21` [THC, Tetrahydrocannabinol], in the series on prostate cell line, PC-3, the apoptosis result is recorded as “causes apoptosis”. The “specific binding of dihydroxytestosterone to the androgen receptor” value in series [3] is listed as “inhibits specific binding”. Besides, under “cold-pressor test after administration”, the pain sensitivity result is reported as “decreased pain sensitivity”. Further, the “time after administration at which pain reduction effects were felt (average)” value (cold-pressor test, dronabinol oral capsules 10 mg or 20 mg) was 180 min. Besides, the duration of effects entry (compared with smoked marijuana) was “lasted longer than smoked marijuana”.
Take `CCCc1cc(O)c2c(c1)OC(C)(C)[C@@H]1CCC(C)=C[C@@H]21` [THCV, Tetrahydrocannabivarin]: the “CB1 receptor mode of action” value on CB1 receptor is “antagonist”.
On to vitamin E, for which the “reduction in breast cancer incidence” value in series [4] (pre-menopausal women with a family history of breast cancer, highest quantity of vitamin E consumed) is recorded as 43%. Moreover, the “risk reduction of breast cancer” value in series [4] (women without a family history of breast cancer) is 16%.
